Results on 21 compounds are retold here after PMC10208593 (Journal of molecular structure, 2023).

“Also recorded” adds a separate entry of the source. Where two headings read alike, the source gives them in different places.

The target in assay [1] is tubulin obtained from bovine brains (Bos taurus, UniProt P81947+Q6B856). Put plainly: Inhibition of [3H]colchicine binding to tubulin. Particulars: for Colchicine binding % inhibition ± SD, 50 μM: 50 μM compound, tubulin 1 μM, [3H]colchicine 5 μM; for inhibition at 50 µM: read-out: Colchicine binding % inhibition ± SD, 50 μM.
Chain of tubulin obtained from bovine brains (Q6B856 whole entry): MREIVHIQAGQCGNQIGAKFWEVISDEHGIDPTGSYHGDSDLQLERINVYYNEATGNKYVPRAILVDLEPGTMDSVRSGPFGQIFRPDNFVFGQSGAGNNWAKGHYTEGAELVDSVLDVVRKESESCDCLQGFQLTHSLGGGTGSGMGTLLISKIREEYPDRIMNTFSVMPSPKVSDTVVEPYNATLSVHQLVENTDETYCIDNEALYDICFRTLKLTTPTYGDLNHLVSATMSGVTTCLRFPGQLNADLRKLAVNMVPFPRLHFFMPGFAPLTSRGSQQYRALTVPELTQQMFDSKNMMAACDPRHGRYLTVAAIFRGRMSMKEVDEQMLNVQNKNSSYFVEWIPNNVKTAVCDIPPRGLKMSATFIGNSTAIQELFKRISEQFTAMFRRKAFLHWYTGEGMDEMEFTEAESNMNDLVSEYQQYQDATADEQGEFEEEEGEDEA
Chain of tubulin obtained from bovine brains (P81947 whole entry): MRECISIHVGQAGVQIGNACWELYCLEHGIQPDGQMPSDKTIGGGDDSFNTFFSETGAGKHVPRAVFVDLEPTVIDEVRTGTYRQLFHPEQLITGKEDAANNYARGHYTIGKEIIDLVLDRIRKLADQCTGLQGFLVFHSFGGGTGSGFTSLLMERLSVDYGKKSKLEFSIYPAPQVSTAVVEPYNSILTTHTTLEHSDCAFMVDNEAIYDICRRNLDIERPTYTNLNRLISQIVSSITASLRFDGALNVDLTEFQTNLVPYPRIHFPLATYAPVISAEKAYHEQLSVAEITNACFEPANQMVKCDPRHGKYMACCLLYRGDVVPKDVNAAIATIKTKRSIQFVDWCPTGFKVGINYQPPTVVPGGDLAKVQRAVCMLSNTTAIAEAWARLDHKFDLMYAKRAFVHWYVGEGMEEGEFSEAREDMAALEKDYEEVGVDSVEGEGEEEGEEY
Assay [2] has as its system Mahlavu. Put plainly: SRB cytotoxicity assay, Mahlavu. In kind it is cell-based. To be noted: Homo sapiens, read-out: IC50 (μM) ± S.D. Mahlavu. Background: Sulforhodamine B stains cellular protein and so reports cell mass.
Assay [3] deals with Huh7. Put plainly: Flow cytometry cell cycle analysis, Huh7. Format: cell-based, human. To be noted: propidium iodide; for cell cycle phase arrest, Huh7: 72 h at IC50 concentration; for cell cycle phase arrest, Huh7, higher concentration: 72 h at 10 μM.
In assay [4] the test system is Huh7. Put plainly: SRB cytotoxicity assay, Huh7. Format: cell-based. Particulars: Homo sapiens.
In a further assay the test system is SNU475. Put plainly: SRB cytotoxicity assay, SNU475. In kind it is cell-based. To be noted: Homo sapiens, SNU-475, read-out: IC50 (μM) ± S.D. SNU475.
The test system of a further assay is HepG2. Put plainly: SRB cytotoxicity assay, HepG2. In kind it is cell-based. To be noted: Homo sapiens, HepG2, read-out: IC50 (μM) ± S.D. HepG2.
In another assay the test system is HCT116. Put plainly: SRB cytotoxicity assay, HCT116. In kind it is cell-based. To be noted: Homo sapiens, HCT-116, 72 h, read-out: IC50 (μM) ± S.D. HCT116.
The subject of another assay is MCF-7. Put plainly: SRB cytotoxicity assay, MCF-7. In kind it is cell-based. To be noted: Homo sapiens, MCF7, 72 h, read-out: IC50 (μM) ± S.D. MCF-7.
Assay [5] relates to Huh7, HepG2, Mahlavu and SNU475 cells. Put plainly: Detection of apoptosis by Hoechst 33258 staining. Format: cell-based, human. To be noted: 48 h, IC100 concentrations, all four HCC lines.
For assay [6], the system named is Mahlavu. Put plainly: Real-time cell monitoring. In kind it is cell-based, human. To be noted: RT-CES, increasing concentrations, 72 h, vs DMSO control.
In assay [7] the test system is Mahlavu. Put plainly: Flow cytometry cell cycle analysis, Mahlavu. Format: cell-based, human. To be noted: propidium iodide; for cell cycle phase arrest, Mahlavu, higher concentration: 72 h at 10 μM; for cell cycle phase arrest, Mahlavu: 72 h at IC50 concentration. Background: In flow cytometry, cells or beads pass a laser one at a time.
Another assay relates to six cancer cell lines. Put plainly: SRB assay, six cancer cell lines taken together. In kind it is cell-based. Particulars: Homo sapiens, read-out: IC50 range against the six cancer cell lines examined.
[8] abbreviates: Huh-7, 72 h, read-out: IC50 (μM) ± S.D. Huh7.
[9] abbreviates: Huh-7, read-out: IC50 (μM) ± S.D. Huh7 (HCC cell lines).

Consider `COc1cc(NC(=O)c2cc(-c3c[nH]c4ccccc34)n[nH]2)cc(OC)c1OC` [Compound 10, 3-(1H-Indol-3-yl)-N-(3,4,5-trimethoxyphenyl)-1H-pyrazole-5-carboxamide], for which, in [1], the “Colchicine binding % inhibition ± SD, 50 μM” value is “Inhibition was observed”. In assay [1], the inhibition at 50 µM was found to be 26 ± 7%. In addition, the IC50 was determined as 2.7 ± 0.4 µM in the assay on Mahlavu [2]; 1 ± 0.2 µM with Huh7 [4] (setting [8]); 1 ± 0.2 µM in the assay with Huh7 [4] (setting [9]); 4.1 ± 2.1 µM in the assay on SNU475; 2.9 ± 0.1 µM with HepG2; 2.5 ± 0.3 µM in the assay with HCT116. In the assay with MCF-7, the IC50 stood at 2.1 ± 0.1 µM. Besides, the “cell cycle phase arrest, Huh7” value with Huh7 [3] is listed as “arrest in the G0/G1 phase”. Further, the “apoptotic nuclear morphology (Hoechst staining)” value (“apoptotic nuclear morphology” below) in assay [5] is “visible nuclear blebs or deformed nuclei”. The “real-time cell growth (cell index) inhibition, Mahlavu” value in the assay with Mahlavu [6] is recorded as “noticeable inhibition in cell growth in 6 μM concentration”.

Regarding `CC(C)(C)c1ccc(NC(=O)c2cc(-c3c[nH]c4ccccc34)n[nH]2)cc1` [Compound 11, N-(4-(tert-Butyl)phenyl)-3-(1H-indol-3-yl)-1H-pyrazole-5-carboxamide], the inhibition at 50 µM in assay [1] came out at 9.4 ± 2%. The “cell cycle phase arrest, Mahlavu, higher concentration” value in the assay on Mahlavu [7] is recorded as “arrest in the S phase”. Moreover, the “cell cycle phase arrest, Mahlavu” value with Mahlavu [7] is given as “arrest in the S phase”. The IC50 is 3.4 ± 0.8 µM in the assay on Mahlavu [2]; 0.6 ± 0.4 µM with Huh7 [4] (setting [8]); 0.6 ± 0.4 µM with Huh7 [4] (setting [9]); 4.3 ± 0.9 µM with SNU475; 2.7 ± 0.9 µM in the assay with HepG2; 1.2 ± 0.5 µM in the assay on HCT116. The IC50 with MCF-7 was determined as 1 ± 0.1 µM. In the assay on Huh7 [3], the “cell cycle phase arrest, Huh7, higher concentration” value is recorded as “arrest in the S phase”. The “cell cycle phase arrest, Huh7” value in the assay with Huh7 [3] is “did not cause a significant change”. The “apoptotic nuclear morphology” value in [5] was “visible nuclear blebs or deformed nuclei”. For the same compound, in the assay on Mahlavu [6], the “real-time cell growth (cell index) inhibition, Mahlavu” value is “dose-dependent growth inhibition”.

Turning to `CSc1ccc(NC(=O)c2cc(-c3c[nH]c4ccccc34)n[nH]2)cc1` [Compound 12, 3-(1H-Indol-3-yl)-N-(4-(methylthio)phenyl)-1H-pyrazole-5-carboxamide], the IC50 was found to be 6.3 ± 1.6 µM in the assay on Huh7 [4] (setting [8]), 9 ± 1.9 µM with HCT116 and 2 ± 0.2 µM with MCF-7.

Consider `COc1cc(CNC(=O)c2cc(-c3c[nH]c4ccccc34)n[nH]2)cc(OC)c1OC` [Compound 13, 3-(1H-Indol-3-yl)-N-(3,4,5-trimethoxybenzyl)-1H-pyrazole-5-carboxamide], for which the IC50 was 17.2 ± 2.1 µM with Huh7 [4] (setting [8]), 31 ± 2.4 µM in the assay with HCT116 and 17.9 ± 1 µM in the assay with MCF-7.

As to `O=C(Nc1ccccc1)c1cc(-c2c[nH]c3ccccc23)n[nH]1` [Compound 14, 3-(1H-Indol-3-yl)-N-phenyl-1H-pyrazole-5-carboxamide], the IC50 in the assay on Huh7 [4] (setting [8]) was 16.8 ± 3.8 µM; with HCT116, over 50 µM; with MCF-7, 22.2 ± 1.8 µM.

For `COc1ccc(NC(=O)c2cc(-c3c[nH]c4ccccc34)n[nH]2)cc1` [Compound 15, 3-(1H-Indol-3-yl)-N-(4-methoxyphenyl)-1H-pyrazole-5-carboxamide], the figures for the IC50 in the assay on Huh7 [4] (setting [8]), with HCT116 and in the assay on MCF-7 were 8.6 ± 2.1 µM, 11.9 ± 1 µM and 5.5 ± 0.5 µM, respectively.

As to `COc1cc(NC(=O)c2cc(-c3c[nH]c4ccccc34)n[nH]2)cc(OC)c1` [Compound 16, N-(3,5-Dimethoxyphenyl)-3-(1H-indol-3-yl)-1H-pyrazole-5-carboxamide], the IC50 is 4.5 ± 0.1 µM in the assay with Huh7 [4] (setting [8]), 6.2 ± 1 µM in the assay on HCT116 and 2.6 ± 0.5 µM in the assay with MCF-7.

On to `COc1ccc(NC(=O)c2cc(-c3c[nH]c4ccccc34)n[nH]2)cc1OC` [Compound 17, N-(3,4-Dimethoxyphenyl)-3-(1H-indol-3-yl)-1H-pyrazole-5-carboxamide], for which the figures for the IC50 in the assay with Huh7 [4] (setting [8]), in the assay with HCT116 and in the assay with MCF-7 were 2.8 ± 1.2 µM, 10.1 ± 0.7 µM and 1.7 ± 0.4 µM, respectively.

Regarding `COc1ccc(OC)c(NC(=O)c2cc(-c3c[nH]c4ccccc34)n[nH]2)c1` [Compound 18, N-(2,5-Dimethoxyphenyl)-3-(1H-indol-3-yl)-1H-pyrazole-5-carboxamide], the “Colchicine binding % inhibition ± SD, 50 μM” value in [1] was “Inhibition was observed”. The inhibition at 50 µM in [1] is 23 ± 3%. For the same compound, the “cell cycle phase arrest, Mahlavu, higher concentration” value with Mahlavu [7] was “cell cycle arrest in the G2/M phase; also recorded: cell cycle arrest at the G2/M phase”. Also, the “cell cycle phase arrest, Mahlavu” value in the assay on Mahlavu [7] is “arrest in the G2/M phase”. Further, the IC50 in the assay on Mahlavu [2] is 2.9 ± 0.8 µM; in the assay on Huh7 [4] (setting [8]), 0.6 ± 0.1 µM; with Huh7 [4] (setting [9]), 0.6 ± 0.2 µM; in the assay with SNU475, 2.9 ± 1.13 µM; in the assay on HepG2, 1.3 ± 0.09 µM; with six cancer cell lines it was 0.6 to 3.6 µM. Also, the IC50 in the assay on HCT116 is 1.4 ± 0.5 µM; with MCF-7 it was 3.6 ± 0.4 µM. In the assay with Huh7 [3], the “cell cycle phase arrest, Huh7, higher concentration” value was “cell cycle arrest in the G2/M phase; also recorded: cell cycle arrest at the G2/M phase”. The “cell cycle phase arrest, Huh7” value in the assay with Huh7 [3] is listed as “did not cause a significant change”. For the same compound, the “apoptotic nuclear morphology” value in assay [5] was “visible nuclear blebs or deformed nuclei; also recorded: induced apoptotic cell death”.

As for `O=C(c1cc(-c2c[nH]c3ccccc23)n[nH]1)N1CCCCC1` [Compound 19, (3-(1H-Indol-3-yl)-1H-pyrazol-5-yl)(piperidin-1-yl)methanone], the IC50 is 19.1 ± 1.8 µM in the assay with Huh7 [4] (setting [8]), 23 ± 3.5 µM in the assay with HCT116 and 21.7 ± 2 µM with MCF-7.

As to `O=C(c1cc(-c2c[nH]c3ccccc23)n[nH]1)N1CCOCC1` [Compound 20, (3-(1H-Indol-3-yl)-1H-pyrazol-5-yl)(morpholino)methanone], the IC50 in the assay on Huh7 [4] (setting [8]), in the assay on HCT116 and with MCF-7 was over 50 µM throughout.

In the case of `CCCCNC(=O)c1cc(-c2c[nH]c3ccccc23)n[nH]1` [Compound 21, N-Butyl-3-(1H-indol-3-yl)-1H-pyrazole-5-carboxamide], the IC50 is over 50 µM with Huh7 [4] (setting [8]), 23.1 ± 5.1 µM in the assay with HCT116 and 26.7 ± 0.5 µM with MCF-7.

For the compound `O=C(Nc1ccc(Cl)cc1)c1cc(-c2c[nH]c3ccccc23)n[nH]1` [Compound 22, N-(4-Chlorophenyl)-3-(1H-indol-3-yl)-1H-pyrazole-5-carboxamide], the IC50 in the assay on Huh7 [4] (setting [8]) was over 50 µM; in the assay with HCT116, over 50 µM; in the assay on MCF-7 it was 29.8 ± 3.1 µM.

Consider `O=C(Nc1ccc(Br)cc1)c1cc(-c2c[nH]c3ccccc23)n[nH]1` [Compound 23, N-(4-Bromophenyl)-3-(1H-indol-3-yl)-1H-pyrazole-5-carboxamide], for which the IC50 is over 50 µM in the assay on Huh7 [4] (setting [8]), over 50 µM in the assay on HCT116 and 39.3 ± 1 µM in the assay on MCF-7.

Consider `O=C(NCc1ccncc1)c1cc(-c2c[nH]c3ccccc23)n[nH]1` [Compound 24, 3-(1H-Indol-3-yl)-N-(pyridin-4-ylmethyl)-1H-pyrazole-5-carboxamide], for which the IC50 worked out at 30.4 ± 1.4 µM with Huh7 [4] (setting [8]), 33.2 ± 1 µM in the assay on HCT116 and 31.2 ± 2.6 µM with MCF-7.

`O=C(NCc1cccnc1)c1cc(-c2c[nH]c3ccccc23)n[nH]1` [Compound 25, 3-(1H-Indol-3-yl)-N-(pyridin-3-ylmethyl)-1H-pyrazole-5-carboxamide]: the figures for the IC50 with Huh7 [4] (setting [8]), in the assay on HCT116 and with MCF-7 were 29.1 ± 1 µM, 26.8 ± 2.1 µM and 36.5 ± 4 µM, respectively.

Regarding `O=C(NCc1ccccn1)c1cc(-c2c[nH]c3ccccc23)n[nH]1` [Compound 26, 3-(1H-Indol-3-yl)-N-(pyridin-2-ylmethyl)-1H-pyrazole-5-carboxamide], the IC50 with Huh7 [4] (setting [8]) is 35.4 ± 1.8 µM; in the assay with HCT116, 34 ± 1.1 µM; in the assay with MCF-7, over 50 µM.

For `O=C(NC1CCN(Cc2ccccc2)CC1)c1cc(-c2c[nH]c3ccccc23)n[nH]1` [Compound 27, N-(1-Benzylpiperidin-4-yl)-3-(1H-indol-3-yl)-1H-pyrazole-5-carboxamide], the IC50 in the assay on Huh7 [4] (setting [8]) was determined as 6.8 ± 0.7 µM; with HCT116, 8.9 ± 0.7 µM; in the assay with MCF-7, 8.6 ± 0.2 µM.

For the compound `O=C(c1cc(-c2c[nH]c3ccccc23)n[nH]1)N1CCN(c2ccc(C(F)(F)F)cc2)CC1` [Compound 28, (3-(1H-Indol-3-yl)-1H-pyrazol-5-yl)(4-(4-(trifluoromethyl)phenyl)piperazin-1yl)methanone], the IC50 stood at 16.2 ± 3.2 µM in the assay with Huh7 [4] (setting [8]), 27.6 ± 2.4 µM in the assay on HCT116 and 16.1 ± 1.7 µM with MCF-7.

Turning to `O=C(c1cc(-c2c[nH]c3ccccc23)n[nH]1)N1CCN(Cc2ccc(C(F)(F)F)cc2)CC1` [Compound 29, (3-(1H-Indol-3-yl)-1H-pyrazol-5-yl)(4-(4-(trifluoromethyl)benzyl)piperazin-1-yl)methanone], the IC50 in the assay with Huh7 [4] (setting [8]) was 1.7 ± 1.8 µM; in the assay with HCT116, 4.1 ± 2 µM; in the assay on MCF-7, 3 ± 0.8 µM.

For the compound `CNC(=O)c1cc(Oc2ccc(NC(=O)Nc3ccc(Cl)c(C(F)(F)F)c3)cc2)ccn1` [Sorafenib, sorafenib, reference compound], the IC50 stood at 8.3 ± 1 µM with Mahlavu [2]; 6.5 ± 0.7 µM in the assay with Huh7 [4] (setting [8]); 6.5 ± 0.7 µM in the assay with Huh7 [4] (setting [9]); 9.6 ± 0.5 µM in the assay with SNU475; 4.4 ± 0.8 µM in the assay on HepG2; 12 ± 0.6 µM in the assay with HCT116. In addition, the IC50 in the assay on MCF-7 is 13.8 ± 1.2 µM.

In general, inhibition refers to the drop in the measured response relative to a control, in per cent. For orientation: IC50 means the concentration at which inhibition is half-maximal.
